In patent US8785471B2, “Pharmaceutical composition containing ferulic acid and matrine compounds, the preparation and the use thereof” (Qingdao Qiyuan Bio-Technologies Co., Ltd., priority 2008, dated 2014):

Tests used:
[1] = tested on: mice; assay: Acute toxicity in mice; type: in vivo; conditions: single intragastric 500 mg/kg, 10 mice, 72 hours
Experimental: Methods: Healthy mice were selected, each group containing 10 mice. The mice were intragastric administrated with testing compositions or controls once; and observed for 72 hours. The deaths were recorded.

[2] = tested on: rheumatoid arthritis patients; conditions: 30 patients, 200 mg tablets daily, 5 days
Experimental: Testing composition preparation: The gel containing ferulic acid and matrine (mole ratio 1:1) were prepared according to a pharmaceutical method.
Methods: 30 pairs of rheumatoid arthritis patients; 30 patients participating in the control group with daily administration of 200 mg naproxen tablets; 30 patients participating in the testing group with daily application on the affected parts of the testing gel containing ferulic acid and matrine. Both groups were administered for consecutive 5 days.
Effect observations: obviously effective if both swelling and aches disappear; effective if aches disappear with limited swelling; invalid if both swelling and aches exist.

[3] = tested on: quails of fat arteriosclerosis model; assay: Anti-atherosclerosis effect, aortic atherosclerosis degree of quails (pathological examination); type: in vivo; parameters: Total atherosclerosis score: scale not given here; conditions: 10 mg/kg
Description: (§1) Testing composition preparation: ferulic acid and oxymatrine were mixed in a mole ratio 1:1 to prepare a solution.
(§2) Methods: According to the method described in reference (Liu et al., 2005. Chinese journal of arteriosclerosis, 13(3): 305-308).
(§3) Test method: 140 male quails were selected and randomly separated into 7 groups: normal control group (healthy quails), modeling control group (fat arteriosclerosis model which is set up by the methods described in reference), positive control group (fat arteriosclerosis model is treated by luofatading 10 mg/kg), ferulic acid control group (tested with ferulic acid 40 mg/kg), large/medium/small dosage testing groups ([…], of testing compositions). Except the normal control group, all the other 6 groups were fat arteriosclerosis models.
(§4) The quails were daily intragastric administrated with testing compositions or controls once per day for consecutive four weeks. The fourth weekend after administration, the content of serum lipid from 10 quails of each group was detected. In the end, pathological examination was conducted on the surviving quails.

[4] = tested on: quails of fat arteriosclerosis model; assay: Anti-atherosclerosis effect, serum TC and TG in quails; type: in vivo; conditions: quail serum, 10 mg/kg intragastric daily, four weeks
Description: as §1, §2, §3, §4
Method to detect the content of serum lipid: at the end of the 4th week after administration, feeding was stopped for 12 hours. 2 ml blood was collected from jugular vein. The serum was separated. The contents of serum cholesterol (TC) and triglyceride (TG) were measured according to an enzymatic method.

Q: How did the Death cases [1] turn out when `O=C1C=CC[C@@H]2[C@H]3CCCN4CCC[C@@H](CN12)[C@@H]34` [Sophocarpine, sophocarpine] was run?
A: 10

Q: Which Effective cases [2] does the source give for `COc1ccc2cc([C@H](C)C(=O)O)ccc2c1` [naproxen] here?
A: 11 cases

Q: What about the Obviously effective cases [2] of the same molecule?
A: 12 cases

Q: And the Total effective percentage [2]?
A: 76.7%

Q: For `O=C1CCC[C@@H]2[C@H]3CCCN4CCC[C@@H](CN12)[C@@H]34` [Matrine, matrine], which Death cases [1] is on record?
A: 10

Q: For `CC[C@H](C)C(=O)O[C@H]1C[C@@H](C)C=C2C=C[C@H](C)[C@H](CC[C@@H]3C[C@@H](O)CC(=O)O3)[C@H]21` [Luofatading], which “Numbers of quails in aortic atherosclerosis degree 0” value [3] is on record?
A: 0

Q: What about the “Numbers of quails in aortic atherosclerosis degree 1” value [3] of the same molecule?
A: 6

Q: What about the “Numbers of quails in aortic atherosclerosis degree 2” value [3] of the same molecule?
A: 8

Q: And the “Numbers of quails in aortic atherosclerosis degree 3” value [3]?
A: 2

Q: What about the “Numbers of quails in aortic atherosclerosis degree 4” value [3] of the same molecule?
A: 0

Q: And the Total atherosclerosis score [3]?
A: 28

Q: What about the TC [4] of the same molecule?
A: 10.19 ± 2.07 mmol/L

Q: What about the TG [4] of the same molecule?
A: 1.68 ± 0.36 mmol/L
